Assay results as given in ChEMBL document CHEMBL5291721, “A preclinical secondary pharmacology resource illuminates target-adverse drug reaction associations of marketed drugs” (Nat Commun, 2023).

Tests used:
Adenosine receptor A3 [1] = target: T1, Adenosine receptor A3 (Homo sapiens, UniProt P0DMS8)
T1 sequence (P0DMS8 whole entry): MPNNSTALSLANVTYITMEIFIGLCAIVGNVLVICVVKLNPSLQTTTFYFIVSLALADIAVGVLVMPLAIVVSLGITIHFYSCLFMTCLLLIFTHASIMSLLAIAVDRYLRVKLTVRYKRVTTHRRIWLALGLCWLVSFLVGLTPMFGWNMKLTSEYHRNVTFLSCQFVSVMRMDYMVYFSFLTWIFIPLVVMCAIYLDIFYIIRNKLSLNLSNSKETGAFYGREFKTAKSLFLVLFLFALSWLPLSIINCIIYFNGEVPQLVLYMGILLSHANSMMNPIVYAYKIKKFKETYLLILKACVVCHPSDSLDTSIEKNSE

[2] = target: T2, Alpha-1A adrenergic receptor (Homo sapiens, UniProt P35348); assay type: functional, cell-based
T2 sequence (P35348 whole entry): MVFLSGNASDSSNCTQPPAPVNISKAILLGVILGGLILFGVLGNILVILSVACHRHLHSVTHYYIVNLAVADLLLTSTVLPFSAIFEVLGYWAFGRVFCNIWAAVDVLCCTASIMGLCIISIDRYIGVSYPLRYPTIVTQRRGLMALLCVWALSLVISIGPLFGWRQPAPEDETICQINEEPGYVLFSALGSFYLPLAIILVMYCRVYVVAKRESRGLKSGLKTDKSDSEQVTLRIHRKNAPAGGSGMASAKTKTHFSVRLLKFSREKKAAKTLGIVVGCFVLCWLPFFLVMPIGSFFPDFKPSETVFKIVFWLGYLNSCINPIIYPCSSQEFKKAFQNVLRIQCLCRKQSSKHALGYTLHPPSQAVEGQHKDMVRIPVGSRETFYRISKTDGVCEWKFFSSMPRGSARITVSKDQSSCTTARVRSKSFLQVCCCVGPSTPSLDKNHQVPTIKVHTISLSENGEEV

[3] = target: Vascular endothelial growth factor receptor 2 (Homo sapiens, UniProt P35968); assay type: functional
Vascular endothelial growth factor receptor 2, sequence (P35968 whole entry): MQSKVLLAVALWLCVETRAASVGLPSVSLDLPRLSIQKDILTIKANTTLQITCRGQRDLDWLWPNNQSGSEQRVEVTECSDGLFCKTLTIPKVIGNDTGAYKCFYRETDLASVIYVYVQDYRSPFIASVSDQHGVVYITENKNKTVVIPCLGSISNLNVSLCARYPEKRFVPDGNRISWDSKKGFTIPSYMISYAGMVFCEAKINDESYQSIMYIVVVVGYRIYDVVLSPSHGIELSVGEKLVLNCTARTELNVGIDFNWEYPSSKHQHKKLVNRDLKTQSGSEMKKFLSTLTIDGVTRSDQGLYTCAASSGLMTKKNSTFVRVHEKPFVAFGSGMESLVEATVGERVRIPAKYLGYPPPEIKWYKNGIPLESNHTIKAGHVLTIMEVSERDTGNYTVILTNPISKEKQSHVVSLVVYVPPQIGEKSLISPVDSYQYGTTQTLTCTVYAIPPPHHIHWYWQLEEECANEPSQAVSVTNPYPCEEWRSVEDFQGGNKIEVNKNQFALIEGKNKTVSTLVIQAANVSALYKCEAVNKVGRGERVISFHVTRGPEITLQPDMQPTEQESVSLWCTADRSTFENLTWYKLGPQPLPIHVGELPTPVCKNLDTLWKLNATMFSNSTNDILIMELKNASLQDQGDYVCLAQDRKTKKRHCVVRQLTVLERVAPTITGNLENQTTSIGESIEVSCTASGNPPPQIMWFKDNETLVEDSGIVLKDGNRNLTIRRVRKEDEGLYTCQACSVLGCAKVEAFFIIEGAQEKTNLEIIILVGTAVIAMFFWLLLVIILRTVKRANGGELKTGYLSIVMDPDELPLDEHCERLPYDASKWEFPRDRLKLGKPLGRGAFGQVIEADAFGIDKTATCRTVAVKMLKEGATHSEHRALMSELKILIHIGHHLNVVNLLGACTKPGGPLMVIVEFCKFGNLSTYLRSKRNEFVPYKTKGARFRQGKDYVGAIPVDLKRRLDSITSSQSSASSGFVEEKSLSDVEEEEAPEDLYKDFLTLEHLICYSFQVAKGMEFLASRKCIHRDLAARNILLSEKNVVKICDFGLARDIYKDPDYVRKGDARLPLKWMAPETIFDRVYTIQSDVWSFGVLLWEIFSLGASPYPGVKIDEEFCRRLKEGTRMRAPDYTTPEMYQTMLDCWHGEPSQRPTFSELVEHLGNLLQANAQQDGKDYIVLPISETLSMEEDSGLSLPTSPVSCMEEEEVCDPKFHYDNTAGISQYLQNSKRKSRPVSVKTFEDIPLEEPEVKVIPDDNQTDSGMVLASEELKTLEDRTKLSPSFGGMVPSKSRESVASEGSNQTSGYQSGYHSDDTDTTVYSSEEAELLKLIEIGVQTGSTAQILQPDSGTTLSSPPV

Adenosine receptor A3 [4] = target: T1, Adenosine receptor A3; remark: listed apart in the source
[5] = target: T2, Alpha-1A adrenergic receptor; assay type: functional, cell-based; remark: listed apart in the source
[6] = target: Beta-1 adrenergic receptor (Homo sapiens, UniProt P08588); assay type: functional
Beta-1 adrenergic receptor, sequence (P08588 whole entry): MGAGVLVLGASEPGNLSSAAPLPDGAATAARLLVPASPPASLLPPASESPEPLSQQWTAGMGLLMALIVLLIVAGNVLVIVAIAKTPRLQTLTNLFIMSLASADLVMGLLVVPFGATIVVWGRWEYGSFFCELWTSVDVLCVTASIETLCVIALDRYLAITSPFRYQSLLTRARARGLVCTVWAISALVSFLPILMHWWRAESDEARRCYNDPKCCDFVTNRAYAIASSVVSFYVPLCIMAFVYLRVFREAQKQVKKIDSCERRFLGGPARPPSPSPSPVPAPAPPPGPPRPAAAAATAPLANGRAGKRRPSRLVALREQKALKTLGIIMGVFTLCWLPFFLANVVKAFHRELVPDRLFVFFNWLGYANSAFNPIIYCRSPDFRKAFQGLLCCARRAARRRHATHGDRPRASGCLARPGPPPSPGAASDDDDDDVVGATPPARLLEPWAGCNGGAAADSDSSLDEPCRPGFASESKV

Vasopressin V1a receptor = Vasopressin V1a receptor (Homo sapiens, UniProt P37288)
Vasopressin V1a receptor, sequence (P37288 whole entry): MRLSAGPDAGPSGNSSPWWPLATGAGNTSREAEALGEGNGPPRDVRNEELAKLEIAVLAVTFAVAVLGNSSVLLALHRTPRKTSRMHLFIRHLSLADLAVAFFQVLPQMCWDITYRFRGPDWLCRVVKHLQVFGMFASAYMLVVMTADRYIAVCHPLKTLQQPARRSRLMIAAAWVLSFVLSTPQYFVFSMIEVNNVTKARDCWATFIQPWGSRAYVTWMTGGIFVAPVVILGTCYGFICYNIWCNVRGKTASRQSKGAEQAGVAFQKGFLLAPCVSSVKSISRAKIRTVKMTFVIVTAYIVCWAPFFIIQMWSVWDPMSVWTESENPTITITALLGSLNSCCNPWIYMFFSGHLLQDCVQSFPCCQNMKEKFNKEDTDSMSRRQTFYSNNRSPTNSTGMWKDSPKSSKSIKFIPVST

[7] = target: T3, Muscarinic acetylcholine receptor M2 (Homo sapiens, UniProt P08172); assay type: functional, cell-based
T3 sequence (P08172 whole entry): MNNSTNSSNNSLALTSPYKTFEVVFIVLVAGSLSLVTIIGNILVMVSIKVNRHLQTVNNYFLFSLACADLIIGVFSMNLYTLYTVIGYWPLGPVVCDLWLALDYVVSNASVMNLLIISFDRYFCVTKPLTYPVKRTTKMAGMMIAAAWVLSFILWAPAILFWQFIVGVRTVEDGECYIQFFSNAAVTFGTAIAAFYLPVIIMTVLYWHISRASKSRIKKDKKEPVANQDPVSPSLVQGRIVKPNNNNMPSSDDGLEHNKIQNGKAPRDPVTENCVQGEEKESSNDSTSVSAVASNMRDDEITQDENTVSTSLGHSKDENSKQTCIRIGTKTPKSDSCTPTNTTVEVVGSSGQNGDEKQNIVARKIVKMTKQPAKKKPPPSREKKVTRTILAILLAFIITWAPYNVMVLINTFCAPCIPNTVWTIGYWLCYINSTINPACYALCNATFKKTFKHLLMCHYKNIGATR

[8] = target: T4, Neuropeptide Y receptor type 1 (Homo sapiens, UniProt P25929)
T4 sequence (P25929 whole entry): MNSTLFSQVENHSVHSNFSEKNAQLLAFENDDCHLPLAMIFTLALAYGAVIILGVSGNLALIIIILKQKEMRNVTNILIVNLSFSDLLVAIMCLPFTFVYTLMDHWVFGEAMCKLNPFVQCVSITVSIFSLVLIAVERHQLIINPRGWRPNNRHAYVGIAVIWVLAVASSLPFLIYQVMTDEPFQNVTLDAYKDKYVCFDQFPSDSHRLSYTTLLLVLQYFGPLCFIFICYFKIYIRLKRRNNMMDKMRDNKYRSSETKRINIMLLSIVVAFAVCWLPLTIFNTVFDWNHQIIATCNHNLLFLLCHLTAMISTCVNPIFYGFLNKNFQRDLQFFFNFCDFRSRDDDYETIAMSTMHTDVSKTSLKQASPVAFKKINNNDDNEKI

Progesterone receptor = target: T5, Progesterone receptor (Homo sapiens, UniProt P06401); assay type: functional
T5 sequence (P06401 whole entry): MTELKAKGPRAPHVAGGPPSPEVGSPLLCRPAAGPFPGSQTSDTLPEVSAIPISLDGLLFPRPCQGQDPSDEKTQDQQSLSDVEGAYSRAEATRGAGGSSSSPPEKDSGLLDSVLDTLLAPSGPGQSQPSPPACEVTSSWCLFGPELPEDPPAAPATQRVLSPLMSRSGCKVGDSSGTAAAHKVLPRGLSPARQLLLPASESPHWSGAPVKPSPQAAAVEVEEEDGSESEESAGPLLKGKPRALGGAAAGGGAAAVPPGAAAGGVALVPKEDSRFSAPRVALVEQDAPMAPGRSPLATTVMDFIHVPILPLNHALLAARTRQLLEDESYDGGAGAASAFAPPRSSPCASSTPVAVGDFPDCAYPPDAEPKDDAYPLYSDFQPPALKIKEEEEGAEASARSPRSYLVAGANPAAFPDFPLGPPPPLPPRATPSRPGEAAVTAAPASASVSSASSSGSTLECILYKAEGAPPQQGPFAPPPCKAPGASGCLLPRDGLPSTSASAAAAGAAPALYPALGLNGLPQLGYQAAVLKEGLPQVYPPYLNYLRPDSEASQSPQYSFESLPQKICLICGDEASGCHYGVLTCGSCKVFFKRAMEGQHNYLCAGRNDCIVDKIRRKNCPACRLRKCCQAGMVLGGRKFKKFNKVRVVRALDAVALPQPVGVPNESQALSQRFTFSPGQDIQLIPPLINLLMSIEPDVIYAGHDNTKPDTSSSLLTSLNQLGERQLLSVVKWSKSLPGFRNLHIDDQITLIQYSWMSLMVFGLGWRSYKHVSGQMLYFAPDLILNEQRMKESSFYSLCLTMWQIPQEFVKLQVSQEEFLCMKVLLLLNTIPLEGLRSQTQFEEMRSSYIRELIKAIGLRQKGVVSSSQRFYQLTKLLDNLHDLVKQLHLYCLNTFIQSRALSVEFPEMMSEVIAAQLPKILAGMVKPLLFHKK
Further: assay procedure not described here.

| AC50 [8] [µM] | SMILES | AC50 (Adenosine receptor A3 [1]) [µM] | AC50 [2] [µM] | AC50 [3] [µM] | AC50 (Adenosine receptor A3 [4]) [µM] | AC50 [5] [µM] | AC50 [6] [µM] | AC50 (Vasopressin V1a receptor) [µM] | AC50 [7] [µM] | AC50 (Progesterone receptor) [µM] |
| --- | --- | --- | --- | --- | --- | --- | --- | --- | --- | --- |
|  | CN(C)CCCN1C(=O)c2cc([N+](=O)[O-])ccc2Oc2ccccc21 | > 30 | > 30 | > 30 |  |  |  |  |  |  |
| > 30 | CC(/C=C1\SC(=S)N(CC(=O)O)C1=O)=C\c1ccccc1 |  |  |  | 20 | > 30 | 26 | 28 | > 30 | > 30 |
|  | O=S(=O)(O)CCS [2-MERCAPTOETHANESULFONIC ACID] | > 30 | > 30 | > 30 |  |  |  |  |  |  |
| > 30 | CC1(C)S[C@@H]2[C@H](NC(=O)[C@H](N)c3ccc(O)cc3)C(=O)N2[C@H]1C(=O)O [AMOXICILLIN] |  |  |  | > 30 | > 30 | > 30 | > 30 | > 30 | > 30 |
|  | O=C(O)COc1nn(Cc2ccccc2)c2ccccc12 [BENDAZAC] | > 30 | > 30 | > 30 |  |  |  |  |  |  |
|  | O=C(O)CCCc1ccc(N(CCCl)CCCl)cc1 [CHLORAMBUCIL] | > 30 | > 30 | > 30 |  |  |  |  |  |  |
| > 30 | COC(=O)[C@H](c1ccccc1Cl)N1CCc2sccc2C1 [CLOPIDOGREL] |  |  |  | > 30 | > 30 |  | > 30 | > 30 | > 30 |
|  | CN(CC(=O)O)C(=N)N [CREATINE] | > 30 | > 30 | > 30 |  |  |  |  |  |  |
|  | C#Cc1cccc(Nc2ncnc3cc(OCCOC)c(OCCOC)cc23)c1 [ERLOTINIB] | 3.01 | > 30 |  | 25 | > 30 | > 30 | > 30 | > 30 | > 30 |
|  | Cc1cc2c(OCC(O)CNC(C)C)cccc2[nH]1 (stereo not given) [MEPINDOLOL] | > 30 | > 30 | > 30 |  |  |  |  |  |  |
|  | CCOc1cc(N)c(Cl)cc1C(=O)NCC1CN(Cc2ccc(F)cc2)CCO1 (stereo not given) [MOSAPRIDE] | 14.5 | > 30 | > 30 |  |  |  |  |  |  |
|  | CCOc1ccc2ccccc2c1C(=O)N[C@@H]1C(=O)N2[C@@H]1SC(C)(C)[C@@H]2C(=O)O [NAFCILLIN] | > 30 | > 30 | > 30 |  |  |  |  |  |  |
|  | CN1CCC[C@H]1c1cccnc1 [NICOTINE] | > 30 | > 30 | > 30 |  |  |  |  |  |  |
| > 30 | CC(C)N(CCCCOCC(=O)NS(C)(=O)=O)c1cnc(-c2ccccc2)c(-c2ccccc2)n1 [SELEXIPAG] |  |  |  | 7.89 | > 30 | > 30 | > 30 | > 30 | > 30 |
|  | CCCCCCCCNC(C)C(O)c1ccc(SC(C)C)cc1 (stereo not given) [SULOCTIDIL] | 9.82 |  | > 30 |  |  |  |  |  |  |
| > 30 | Cc1cc(CC(=O)O)n(C)c1C(=O)c1ccc(Cl)cc1 [ZOMEPIRAC] |  |  |  | > 30 | > 30 | > 30 | > 30 | > 30 | > 30 |

| SMILES | AC50 [8] [µM] | AC50 (Adenosine receptor A3 [1]) [µM] | AC50 [2] [µM] | AC50 [3] [µM] | AC50 (Adenosine receptor A3 [4]) [µM] | AC50 [5] [µM] | AC50 [6] [µM] | AC50 (Vasopressin V1a receptor) [µM] | AC50 [7] [µM] | AC50 (Progesterone receptor) [µM] |
| --- | --- | --- | --- | --- | --- | --- | --- | --- | --- | --- |
| CC(=O)Oc1ccccc1C(=O)Nc1ncc([N+](=O)[O-])s1 [NITAZOXANIDE] | 17 | 9.88 |  | > 30 | 5 | > 30 | 8.8 | 17 | 1.4 | > 30 |
| CNCCC=C1c2ccccc2CCc2ccccc21 [NORTRIPTYLINE] | > 30 |  |  |  | > 30 | > 30 |  | > 30 | > 30 | > 30 |
| O=C1NC(=O)C(c2ccccc2)(c2ccccc2)N1 [PHENYTOIN] | > 30 |  |  |  | > 30 | > 30 | > 30 | > 30 | > 30 | > 30 |
| CCCN(CCC)CCc1cccc2c1CC(=O)N2 [ROPINIROLE] | > 30 |  |  |  | > 30 | 6.93 | > 30 | > 30 | > 30 | > 30 |
